Data published in patent US20220313658A1, “YAP Inhibition for Wound Healing” (The Board of Trustees of the Leland Stanford Junior …, priority 2019, published 2022).

Tested on: dorsal excisional wounds
Assay: Dorsal excisional wounding, wound base injected with Verteporfin: gross, histology, immunofluorescence
Type: in vivo, mouse
Source text: P60 En-1^Cre;R26^mTmG, En-1^Cre;Ai6, and En-1^Cre-ERT;Ai6 mice were used for cutaneous wound healing experiments in accordance with well-established protocols. Briefly, mice were anesthetized (2% isofiuorane), their dorsal hair was removed with depilatory cream, and the dorsal skin was prepped with alcohol wipes. Next, two 6 mm full-thickness circular wounds were placed through the panniculus carnosus on the dorsum of each animal at the same level, roughly 6 mm below the ears and 4 mm lateral to the midline. The wounds were then stented open by 12 mm diameter silicone rings secured around the wound perimeter with glue and 8 simple interrupted Ethilon 6-0 sutures (Ethicon). For mice receiving mechanotransduction inhibitor, 30 μL of Verteporfin (1 mg/mL) was injected locally into the wound base; PBS was injected into wounds for vehicle controls. Post-operative analgesia was accomplished with buprenorphine 0.05 mg/kg every four hours for three doses, and then as indicated. Dressings were changed every other day under anesthesia. All wounds were fully re-epithelialized by post-operative day (POD) 14, at which time the wound and surrounding skin (used as unwounded control) were harvested and processed for histology. Induction of En-1^Cre-ERT;Ai6 mice was achieved by 5 consecutive days of intraperitoneal tamoxifen injections (90% corn oil/ethanol v/v; 200 mg/kg body weight) prior to wounding. In all experiments, a minimum of 3 mice with 2 wounds each was used for each treatment group.
Tissues were fixed in 2% paraformaldehyde for 16 h at 4° C. Samples were prepared for embedding by soaking in 30% sucrose in PBS for 1 week at 4° C. Samples were then removed from the sucrose solution, and tissue blocks were prepared by embedding in Tissue Tek U.C.T. (Sakura Finetek) under dry ice to achieve rapid freezing. Frozen blocks were mounted on a Thermo Scientific CryoStar NX70 cryostat, and 10 μm-thick sections were transferred to SuperfrostfPlus adhesive slides (Fisher). For hematoxylin and eosin staining, standard protocols were used with no modifications. For immunofluorescent staining, slides were blocked for 1 hr with Power Block (Biogenex) prior to addition of the following primary antibodies: Abeam ab34710 (anti-collagen type I), Abeam ab28340 (anti-CD26), Invitrogen MA5-15915 (anti-Dlk1), Abeam ab51317 (anti-Scat), Abeam ab5694 (anti-α-SMA), Santa Cruz Biotechnology sc-101199 (anti-YAP), Abeam ab7800 (anti-CK14), and Abeam ab52625 (anti-CK19). Slides were then incubated for 1 h with Alexa Fluor 568 or Alexa Fluor 647-conjugated anti-rabbit, anti-rat, or anti-mouse antibodies (Invitrogen). Finally, slides were mounted in Fluoromount-G mounting solution with DAPI (Thermo Fisher). Brightfield images were acquired with a Leica DMI4000B microscope, while fluorescent images were acquired with a Leica DM6000 SP5 upright confocal microscope.
Given that En-1 activation was associated with adoption of a pro-fibrotic phenotype, and that YAP inhibition prevented En-1 activation in vitro, whether YAP inhibition could also block En-1 activation in vivo to reduce scarring in a mouse wounding model was assessed. Adult En-1^Cre;R26^mTmG mice were wounded, and the POD 0 wounds were treated by injecting the wound base with either PBS (control) or Verteporfin (1 mg/mL). […] Wounds were harvested for gross and histological examination at POD 14, 30, or 90. As expected, control wounds healed in a typical scarring fashion (FIG. 4, A middle row). Even after 90 days, the wound site remained bare, forming a distinct region of pale scar tissue in which no hair regrowth occurred (FIG. 4, A middle row, right image). […] This was a striking result, as a hallmark of adult mammalian (scarring) wound healing is a complete lack of regeneration of secondary appendages (e.g., hair follicles, sweat glands), as exemplified by the bare area that remained following control wound healing. […]

[1] = 30 days, relative to control wounds
[2] = four treatments (POD 0, 4, 8 and 12)

verteporfin
Fibronectin staining (14 days, vs control wounds): comparatively stronger staining for fibronectin | col-I staining (14 days, vs control wounds): substantially reduced col-I staining | Distribution of Dlk1+ cells (30 days): present throughout the dermis | CD26 staining [1]: decreased staining for CD26 | Number of EPFs in wounds [1]: significantly fewer EPFs | Chains of YAP+ cells (30 days, vs control wounds): markedly shorter | IF staining of appendages for cytokeratins 14 and 19 (hair follicle and sweat gland markers) (POD 90): positive IF staining | Oil Red O lipid staining (sebaceous glands) (POD 90): positive lipid staining | Regrowth of dermal appendages (POD 90 (FIG. 4, C)): regrowth of hair follicles and other dermal appendages | Fibroblast lineage content of wounds (ENFs vs EPFs) (after 14 days): almost exclusively ENFs | H&E histology: dermal appendage structures (by 1 and 3 months): numerous structures morphologically resembling hair follicles or sweat glands | H&E histology: fibrosis and cellularity (by 2 weeks): reduced fibrosis and increased cellularity | Hair regrowth [2]: grossly reduced | Wound closure [2]: delayed | Hair growth within healed wound (single dose POD 0, by 30 days): substantial hair growth within the healed wound | Gross appearance of healed wound (single dose POD 0, by 90 days): grossly indistinguishable from unwounded skin | Wound closure rate (single injection 1 mg/mL into wound base at POD 0, vs PBS): did not significantly affect wound closure rate | Number of EPFs in wounds (three months of healing): dramatically reduced numbers of EPFs | YAP+ cells (three months of healing): rare YAP^+ cells | α-SMA+ cells (three months of healing): virtually no α-SMA^+ cells | Wound closure rates, gross appearance and ECM features (two doses (POD 0 and 4)): comparable to those of wounds treated with single Verteporfin dose
